Data reported in patent US10085983B2, “Azabicyclo derivatives, process for preparation thereof and medical use thereof” (Shanghai Haiyan Pharmaceutical Technology Co., Ltd., priority 2014, dated 2018).

How the values were obtained:
H1975 cells = test: Cell growth inhibition by MTT assay, H1975 cells; assay type: cell-based; details: for IC50: MTT assay, 72 hours; for Selective inhibitory activity against cell growth [IC50 (A431 cell)/IC50 (H1975 cell)]: ratio of MTT IC50 values;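 on all read-outs here: MTT read-out in 96-well plates after 72 h compound exposure of H1975 and A431 cells, with selectivity given as the A431 IC50 divided by the H1975 IC50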
Description: (§1) The steps of the MTT assay were carried out using methods well known to those skilled in the art, and all the reagents used in the methods are commercially available.
(§2) After the first wash, another 1.5 mL of trypsin/EDTA was added to digest the adherent cells until the cells detached. Then 3.5 mL of the culture medium was added to terminate the digestion. The digested cell suspension was transferred to a 15 mL centrifuge tube and centrifuged at 1300 rpm for 3 minutes. The supernatant was discarded and the cells were resuspended in fresh medium. The cells were then counted and diluted to the following concentrations: 27,800 cells per milliliter of H1975 cells, 33,300 cells per milliliter of A431 cells and NIH3T3 cells (purchased from the Cell Bank of the Type Culture Collection Committee, Chinese Academy of Sciences).
(§3) After the drug was added, the cells were incubated in an incubator for 72 hours. 10 μL of 5 mg/ml MTT (Sigma, M5655) solution was added to each well. The 96-well plate was then incubated in a 37° C. and 5% CO2 incubator for 4 h.
(§4) The plate was then centrifuged at 2000 rpm for 5 min. After the supernatant was removed, 150 μl of DMSO was added to each well and the plate was shaken in a shaker until all crystal violet was dissolved.

NIH3T3 cells = test: Toxicity test on NIH3T3 cells by MTT assay; assay type: cell-based
Description: as §1, §2, §3, §4

[1] = target: EGFR phosphorylation in H1975 (EGFR T790M mutant) cells (Homo sapiens (Human), UniProt P00533, L858R/T790M); test: Inhibition of EGFR phosphorylation in H1975 cells (ELISA); assay type: cell-based; details: for IC50: ELISA of EGFR phosphorylation, 1 h compound treatment, read-out: H1975 cell (IC50/μM); for Selective inhibitory activity against targets at the cell level [IC50 (A431 cell)/IC50 (H1975 cell)]: ratio of ELISA IC50 values;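 on all read-outs here: Phospho-EGFR in cell lysates measured by capture-antibody ELISA with TMB substrate after compound exposure, cells given DMSO alone (0.5% final) serving as control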
Sequence of EGFR phosphorylation in H1975 (EGFR T790M mutant) cells (P00533 25-1210 T790M/L858R): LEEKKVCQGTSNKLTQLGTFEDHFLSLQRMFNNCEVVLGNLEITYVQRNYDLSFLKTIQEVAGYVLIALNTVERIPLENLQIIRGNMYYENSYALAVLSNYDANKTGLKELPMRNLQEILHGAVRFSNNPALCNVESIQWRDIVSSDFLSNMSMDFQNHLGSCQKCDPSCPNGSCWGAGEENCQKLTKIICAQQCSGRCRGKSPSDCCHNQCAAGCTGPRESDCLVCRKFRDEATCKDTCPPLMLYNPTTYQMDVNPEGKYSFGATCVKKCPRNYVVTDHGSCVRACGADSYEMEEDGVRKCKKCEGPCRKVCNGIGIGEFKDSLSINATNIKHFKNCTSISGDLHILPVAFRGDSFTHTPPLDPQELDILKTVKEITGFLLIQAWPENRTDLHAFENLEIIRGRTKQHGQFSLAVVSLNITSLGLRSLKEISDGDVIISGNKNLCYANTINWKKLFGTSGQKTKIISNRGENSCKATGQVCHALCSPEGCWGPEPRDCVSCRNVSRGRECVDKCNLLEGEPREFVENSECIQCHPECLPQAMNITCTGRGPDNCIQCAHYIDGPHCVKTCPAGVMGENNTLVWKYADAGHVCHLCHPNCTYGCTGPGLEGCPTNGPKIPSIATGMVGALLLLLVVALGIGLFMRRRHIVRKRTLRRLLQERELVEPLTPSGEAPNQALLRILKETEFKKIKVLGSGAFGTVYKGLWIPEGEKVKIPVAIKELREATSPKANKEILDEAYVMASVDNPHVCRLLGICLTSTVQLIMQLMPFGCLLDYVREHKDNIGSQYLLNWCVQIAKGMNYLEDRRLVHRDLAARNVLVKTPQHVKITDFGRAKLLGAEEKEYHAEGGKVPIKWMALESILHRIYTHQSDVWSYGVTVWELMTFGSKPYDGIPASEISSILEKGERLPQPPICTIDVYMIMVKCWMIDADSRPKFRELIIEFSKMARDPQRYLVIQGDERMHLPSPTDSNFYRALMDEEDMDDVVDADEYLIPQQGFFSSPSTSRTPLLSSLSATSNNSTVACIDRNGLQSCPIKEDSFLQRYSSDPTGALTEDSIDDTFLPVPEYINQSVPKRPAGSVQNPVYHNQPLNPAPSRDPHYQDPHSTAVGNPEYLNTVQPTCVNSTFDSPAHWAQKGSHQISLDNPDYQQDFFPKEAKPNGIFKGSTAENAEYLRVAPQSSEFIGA
Description: (§5) In the following methods, the reagents used, the preparation methods of solutions, the cell treatment and the preparation steps of the lysis solution, as well as the ELISA assay steps, were carried out according to the instructions of R&D DYC3570, R&D DYC1095E and R&D DYC1095BE.
(§6) Cell lysis solution: Cell lysis buffer+10 μg/mL Aprotinin (Sigma)+10 μg/mL Leupeptin (Sigma), prepared on site.
(§7) Wash buffer: PBS buffer containing 0.05% (v/v) Tween-20.
(§8) Blocking solution: PBS buffer containing 1% (w/v) BSA.
(1) H1975 cells (purchased from the Cell Bank of the Type Culture Collection Committee, Chinese Academy of Sciences) were seeded into 96-well plates at a density of 1×10^4/well, each cell containing 90 μl of RPMI1640 medium with 10% (V/V) FBS, and cultured overnight at 37° C. in 5% (v/v) CO2.
(2) The compounds to be tested were diluted in accordance with the drug dilution method in the MTT assay. 10 μL of the diluted compound or diluted DMSO was added to the corresponding wells of the cell culture plate, and the final concentration of DMSO was 0.5% (V/V). The plate was cultured at 37° C. in 5% (v/v) CO2 for 1 h. The cell culture system treated with DMSO alone was used as cell control.
(3) The medium was removed and then 100 μL of cell lysis solution was added. The plate was sealed and placed in a refrigerator at −80° C. overnight. The cell lysis buffer was used as blank control.
The assay was conducted according to the instructions given in R&D DYC1095E or R&D DYC1095BE.
(1) R&D capture antibody ((DYC1095BE or DYC1095E)) was diluted with PBS in the proportion of 1:180.
(§9) (2) The plate was washed 3 times with 360 μL of the wash buffer.
(3) 300 μL of the blocking solution was added and the plate was incubated at 25° C. with shaking for 2 hours.
(4) The plate was washed 3 times with 360 μL of the wash buffer.
(§10) (5) 40 μL of cell lysis buffer and 60 μL of cell lysis solution were added and the plate was incubated at 25° C. with shaking for 2 hours.
(§11) (6) The plate was washed 3 times with 360 μL of the wash buffer.
(§12) (7) The detection antibody was diluted with the detection antibody diluent in the proportion specified in the instructions of the kit. 100 μL of the diluted antibody was added to each well and the plate was incubated at 25° C. with shaking in dark for 1 h.
(8) The plate was washed 3 times with 360 μL of wash buffer.
(9) A reagent and B reagent in the TMB substrate (R&D DY999) were mixed in 1:1. 100 μL of the mixture was added to each well and incubated in dark at 25° C. with shaking for 20 min.
(§13) (10) 50 μL of 2N H2SO4 was added to each well.
(11) The plate was read with a microplate reader (Thermo Multiskan K3). OD 450 values and OD570 values of the cell control, blank control, and drug treatment wells were measured. ODcell, ODblank and ODdrug treatment were obtained by subtracting the corresponding OD570 value from the OD 450 value of the same well.
2.3 Data Analysis Inhibition rate (%)=100%×(ODcell−ODdrug treatment)/(ODcell−ODblank)

wild-type EGFR kinase = wild-type EGFR kinase (Homo sapiens (Human), UniProt P00533); details: read-out: EGFR WT (IC50/μM); z'-lyte assay, 10 μM ATP
Sequence of wild-type EGFR kinase (P00533 25-1210): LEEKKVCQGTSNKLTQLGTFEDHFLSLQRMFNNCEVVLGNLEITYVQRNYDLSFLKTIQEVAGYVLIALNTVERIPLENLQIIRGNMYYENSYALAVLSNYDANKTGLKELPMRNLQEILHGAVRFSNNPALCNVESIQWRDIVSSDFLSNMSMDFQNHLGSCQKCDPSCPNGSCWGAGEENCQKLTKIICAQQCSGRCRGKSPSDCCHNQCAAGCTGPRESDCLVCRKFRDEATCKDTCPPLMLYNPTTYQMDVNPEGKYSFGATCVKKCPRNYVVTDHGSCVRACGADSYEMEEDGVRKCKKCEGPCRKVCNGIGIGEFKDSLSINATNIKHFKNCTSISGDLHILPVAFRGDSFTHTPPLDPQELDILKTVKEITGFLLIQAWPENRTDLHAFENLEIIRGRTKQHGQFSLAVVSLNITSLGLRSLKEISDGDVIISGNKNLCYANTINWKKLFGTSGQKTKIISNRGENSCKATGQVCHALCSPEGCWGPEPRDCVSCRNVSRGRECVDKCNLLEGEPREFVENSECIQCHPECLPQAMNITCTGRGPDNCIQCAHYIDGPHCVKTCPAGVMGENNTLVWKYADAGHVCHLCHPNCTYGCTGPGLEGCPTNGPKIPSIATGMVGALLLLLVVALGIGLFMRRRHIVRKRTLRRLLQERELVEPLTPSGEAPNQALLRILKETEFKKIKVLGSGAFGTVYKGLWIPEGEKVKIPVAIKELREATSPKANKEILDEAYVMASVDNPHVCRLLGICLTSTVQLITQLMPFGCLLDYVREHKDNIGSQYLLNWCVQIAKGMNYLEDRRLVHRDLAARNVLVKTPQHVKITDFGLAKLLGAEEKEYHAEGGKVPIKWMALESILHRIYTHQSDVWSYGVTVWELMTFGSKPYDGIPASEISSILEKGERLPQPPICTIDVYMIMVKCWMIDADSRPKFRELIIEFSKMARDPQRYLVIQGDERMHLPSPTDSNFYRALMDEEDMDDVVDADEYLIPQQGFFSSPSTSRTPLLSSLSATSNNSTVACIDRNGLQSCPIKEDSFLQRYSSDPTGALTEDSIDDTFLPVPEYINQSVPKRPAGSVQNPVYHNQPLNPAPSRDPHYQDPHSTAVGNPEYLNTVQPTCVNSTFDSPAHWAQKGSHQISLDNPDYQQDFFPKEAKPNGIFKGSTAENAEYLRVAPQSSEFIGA
Description: All reagents used in the following z′-lyte assay were purchased from Invitrogen.
The working concentrations of each component in 10 μL wild-type EGFR kinase reaction system were: 10 μM ATP, 0.8 ng/μL wild-type EGFR kinase, 2 μM Tyr04 substrate (Invitrogen, PV3193). The concentration of DMSO after addition of the compound to be tested was 2 vol %.
10 mM drug stock solution was dissolved at room temperature and gradiently diluted to a final concentration of 4-0.002 μM with 8 vol % DMSO solution. […] Then 2.5 μl of ATP was added to initiate the reaction. Wherein, ATP was replaced by the reaction buffer in well C1, no drug was added to well C2, and the phosphorylated substrate was added to well C3 according to the instructions. The mixture was allowed to react at 25° C. in a shaker in dark for 60 min. 5 μL of Development Reagent B (Invitrogen, diluted with TR-FRET dilution buffer) was added and allowed to react at room temperature in the shaker for 60 minutes.
The inhibition rate was calculated according to the following method (refer to the instructions of Invitrogen, PV3193):
1. ER=Coumarin Emission (450 nm)/Fluorescein Emission (520 nm)
The half-inhibitory concentration IC50 was obtained through fitting calculation by using XLFIT 5.0 software (IDBS, UK).

[2] = target: EGFR phosphorylation in A431 (EGFR wild-type) cells (Homo sapiens (Human), UniProt P00533); test: Inhibition of EGFR phosphorylation in A431 cells (ELISA); assay type: cell-based; details: 1 h compound treatment, EGF stimulation, read-out: A431 cell (IC50/μM)
Sequence of EGFR phosphorylation in A431 (EGFR wild-type) cells (P00533 25-1210): as above
Description: as §5
I. Reagents and Solutions
as §6, §7, §8
3.1 A431 Cell Treatment and Testing Procedures
(1) A431 cells (purchased from the Cell Bank of the Type Culture Collection Committee, Chinese Academy of Sciences) were seeded in 96-well plates at a density of 1×10^4/well in 90 μl of DMEM medium containing 10% FBS and cultured at 37° C. in 5% CO2 overnight.
(2) The A431 cell culture medium was replaced with 90 μl of serum-free DMEM medium and the plate was cultured overnight.
(3) The compound to be tested was diluted according to the drug dilution method in MTT assay. 10 μL of the diluted compound or diluted DMSO was added to the corresponding wells of the cell culture plate, and the final concentration of DMSO was 0.5%. The plate was cultured at 37° C. in 5% CO2 for 1 hour. […] The cells without EGF and drug treatment were used as cell control, and the cells treated with EGF without drugs were used as EGF control.
(4) The medium was removed and then 100 μL of the cell lysis solution was added. The plate was sealed and placed in a refrigerator at −80° C. overnight.
The assay was conducted according to the instructions given in R&D DYC3570E.
(1) R&D capture antibody (DYC3570E) was diluted with PBS in the proportion of 1:180.
as §9
(3) 200 μL of the blocking solution was added and the plate was incubated at 25° C. with shaking for 2 hours.
(4) The plate was washed 3 times with 360 μL of wash buffer.
as §10, §11, §12
(8) The plate was washed 3 times with 360 μL of the wash buffer.
(9) A reagent and B reagent in TMB substrate (R&D DY999) were mixed in 1:1. 100 μL of the mixture was added to each well and incubated in dark at 25° C. with shaking for 20 min.
as §13
(11) The plate was read with a microplate reader (Thermo Multiskan K3). OD 450 values and OD570 values of the cell control, blank control, and drug treatment wells were measured. ODEGF, ODdrug and ODcell were obtained by subtracting the corresponding OD570 value from the OD 450 value of the same well.
3.3 Data Analysis Inhibition rate (%)=100%×(ODEGF−ODdrug)/(ODEGF−ODcell)

[3] = target: T790M/L858R double mutant EGFR kinase (Homo sapiens (Human), UniProt P00533, L858R/T790M); test: z'-lyte assay of inhibitory activity on T790M/L858R double mutant EGFR kinase; assay type: biochemical; details: for Selective inhibitory activity against enzymes [IC50 (EGFR WT)/IC50 (T790M/L858R)]: ratio of enzyme IC50 values; for IC50: z'-lyte assay, 25 μM ATP
Sequence of T790M/L858R double mutant EGFR kinase (P00533 25-1210 T790M/L858R): as the sequence (P00533 25-1210 T790M/L858R) above

A431 cells = test: Cell growth inhibition by MTT assay, A431 cells; assay type: cell-based
Description: as §1, §2, §3, §4

IC50 (H1975 cells; Homo sapiens, NCI-H1975) [µM]	IC50 (A431 cells; Homo sapiens, A-431, 72 hours) [µM]	Compound	IC50 (NIH3T3 cells; Mus musculus, NIH3T3, 72 hours) [µM]	IC50 [1] [µM]	Selective inhibitory activity against targets at the cell level [IC50 (A431 cell)/IC50 (H1975 cell)] [1]	IC50 (wild-type EGFR kinase) [µM]	IC50 [2] [µM]	IC50 (H1975 cells) [µM]	Selective inhibitory activity against cell growth [IC50 (A431 cell)/IC50 (H1975 cell)] (H1975 cells)	IC50 (NIH3T3 cells; 72 hours) [µM]	Selective inhibitory activity against enzymes [IC50 (EGFR WT)/IC50 (T790M/L858R)] [3]	IC50 [3] [µM]	IC50 (A431 cells; 72 hours) [µM]
		C=CC(=O)Nc1cc(Nc2ncc3ccc(-c4cnn(C)c4)n3n2)c(OC)cc1N(C)CCN(C)C [Compound J-1, N-(2-((2-(dimethylamino)ethyl)(methyl)amino)-4-methoxy-5-(7-(1-methyl-1H-pyrazol-4-yl)pyrrolo[1,2-f][1,2,4]triazin-2-ylamino)phenyl)acrylamide]		0.012	9.3	0.004	0.112	< 0.00457	71.6	4.83	4	0.001	0.327
		C=CC(=O)Nc1cc(Nc2ncc3ccc(-c4cnn(C)c4)n3n2)c(OC)cc1N1CCC(N(C)C)CC1 [Compound J-2, N-(2-(4-(dimethylamino)piperidin-1-yl)-4-methoxy-5-(7-(1-methyl-1H-pyrazol-4-yl)pyrrolo[1,2-f][11,2,4]triazin-2-ylamino)phenyl)acrylamide]		0.025	12.1	0.023	0.303	0.011	36.6	5.46	11.5	0.002	0.403
		C=CC(=O)Nc1cc(Nc2ncc3ccc(-c4cnc5c(ccn5C)c4)n3n2)c(OC)cc1N(C)CCN(C)C [Compound J-7, N-(2-((2-(dimethylamino)ethyl)(methyl)amino)-4-methoxy-5-(7-(1-methyl-1H-pyrrolo[2,3-b]pyridin-5-yl)pyrrolo[1,2-f][1,2,4]triazin-2-ylamino)phenyl)acrylamide]				0.005		0.01	23.1	3.38	2.5	0.002	0.231
		C=CC(=O)Nc1cc(Nc2ncc3ccc(C4CC4)n3n2)c(OC)cc1N(C)CCN(C)C [Compound J-8, N-(5(7-cyclopropylpyrrolo[1,2-f][1,2,4]triazin-2-ylamino)-2-((2-(dimethylamino)ethyl)(methyl)amino)-4-methoxyphenyl)acrylamide]		0.163	3	0.112	0.495	0.097	32.9		56	0.002	3.19
		C=CC(=O)Nc1cc(Nc2ncc3ccc(-c4cnc5ccccc5c4)n3n2)c(OC)cc1N(C)CCN(C)C [Compound J-10, N-(2-((2-(dimethylamino)ethyl)(methyl)amino)-4-methoxy-5-(7-(quinolin-3-yl)pyrrolo[1,2-f][1,2,4]triazin-2-ylamino)phenyl)acrylamide]				0.003		0.009	16.3	3.27	3	0.001	0.147
		C=CC(=O)Nc1cc(Nc2ncc3ccc(C)n3n2)c(OC)cc1N1CCC(N(C)C)CC1 [Compound J-14, N-(2-(4-(dimethylamino)piperidin-1-yl)-4-methoxy-5-(7-methylpyrrolo[1,2-f][1,2,4]triazin-2-ylamino)phenyl)acrylamide]						0.126		7.77			3.56
		C=CC(=O)Nc1cc(Nc2ncc3ccc(C4CC4)n3n2)c(OC)cc1N1CCC(N(C)C)CC1 [Compound J-15, N-(5(7-cyclopropylpyrrolo[1,2-f][1,2,4]triazin-2-ylamino)-2-(4-(dimethylamino)piperidin-1-yl)-4-methoxyphenyl)acrylamide]				> 1					3.8	0.262	
0.388	1.15	C=CC(=O)Nc1cc(Nc2cn3c(-c4ccn(C)c4)cnc3cn2)c(OC)cc1N(C)CCN(C)C [Compound J-16, N-(2-((2-(dimethylamino)ethyl)(methyl)amino)-4-methoxy-5-(3(1-methyl-1H-pyrrol-3-yl)imidazo[1,2-a]pyrazin-6-ylamino)phenyl)acrylamide]	> 10	0.171	1.2		0.211		3				
0.424	2.95	C=CC(=O)Nc1cc(Nc2cn3c(-c4cccnc4)cnc3cn2)c(OC)cc1N(C)CCN(C)C [Compound J-17, N-(2-((2-(dimethylamino)ethyl)(methyl)amino)-4-methoxy-5-(3(pyridin-3-yl)imidazo[1,2-a]pyrazin-6-ylamino)phenyl)acrylamide]	> 10	0.734	1.6		1.16		7				
		C=CC(=O)Nc1cc(Nc2cn3c(-c4cnn(C)c4)cnc3cn2)c(OC)cc1N(C)CCN(C)C [Compound J-18, N-(2-((2-(dimethylamino)ethyl)(methyl)amino)-4-methoxy-5-(3(-methyl-1H-pyrazol-4-yl)imidazo[1,2-α]pyrazin-6-ylamino)phenyl)acrylamide]						0.251	6.2	> 10			1.56
		C=CC(=O)Nc1cc(Nc2cn3c(-c4cnn(C)c4)cnc3cn2)c(OC)cc1N1CCC(N(C)C)CC1 [Compound J-19, N-(2-(4-(dimethylamino)piperidin-1-yl)-4-methoxy-5-(3(1-methyl-1H-pyrazol-4-yl)imidazo[1,2-α]pyrazinyl 6-amino)phenyl)acrylamide]		0.289	1.13		0.327	0.243	5	> 10			1.21
		C=CC(=O)Nc1cc(Nc2ncc3c(C)cc(-c4cnn(C)c4)n3n2)c(OC)cc1N(C)CCN(C)C [Compound J-20, N-(2-((2-(dimethylamino)ethyl)(methyl)amino)-4-methoxy-5-(5-methyl-7-(1-methyl-1H-pyrazol-4-yl)pyrrolo[1,2-F][1,2,4]triazin-2-ylamino)phenyl)acrylamide]				0.294					24.5	0.012	
		C=CC(=O)Nc1cc(Nc2ncc3c(C)cc(-c4cnn(C)c4)n3n2)c(OC)cc1N1CCC(N(C)C)CC1 [Compound J-21, N-(2-(4-(dimethylamino)piperidin-1-yl)-4-methoxy-5-(5-methyl-7-(1-methyl-1H-pyrazol-4-yl)pyrrolo[1,2-F][1,2,4]triazin-2-ylamino)phenyl)acrylamide]				> 1					3.4	0.294	

Compound	IC50 (H1975 cells; Homo sapiens, NCI-H1975) [µM]	IC50 (A431 cells; Homo sapiens, A-431, 72 hours) [µM]	IC50 (NIH3T3 cells; Mus musculus, NIH3T3, 72 hours) [µM]	IC50 [1] [µM]	Selective inhibitory activity against targets at the cell level [IC50 (A431 cell)/IC50 (H1975 cell)] [1]	IC50 (wild-type EGFR kinase) [µM]	IC50 [2] [µM]	IC50 (H1975 cells) [µM]	Selective inhibitory activity against cell growth [IC50 (A431 cell)/IC50 (H1975 cell)] (H1975 cells)	IC50 (NIH3T3 cells; 72 hours) [µM]	Selective inhibitory activity against enzymes [IC50 (EGFR WT)/IC50 (T790M/L858R)] [3]	IC50 [3] [µM]	IC50 (A431 cells; 72 hours) [µM]
CN(C)C/C=C/C(=O)Nc1cc2c(Nc3ccc(F)c(Cl)c3)ncnc2cc1O[C@H]1CCOC1 [BIBW2992, alfatinib, reference compound]	0.088		2.75										
